{"source": "ChEMBL document CHEMBL5608241", "about": "“Discovery of Novel Non-nucleoside DOT1LR231Q Inhibitors with Improved Pharmacokinetic Properties and Anti-lung Cancer Efficacy” (J Med Chem, 2024)", "key": {"NCI-H460": {"tested_on": "NCI-H460", "experiment": "Effect on H3K79me2 expression in human NCI-H460 cells exogenously expressing wildtype DOT1L (unknown origin) (1 to 416 residues) at 5 uM by Western blot analysis", "assay_type": "functional, cell-based"}, "[1]": {"experiment": "Half-life in male Sprague-Dawley rat at 20 mg/kg, ip measured after 24 hrs by LC-MS/MS analysis", "assay_type": "ADME, organism-based", "details": "in vivo"}}, "note": "Calls of active or inactive are those of the source. The calls are words filed in the database; no cut-off is given here."}
{"smiles": "CC(C)(C)c1ccc(NC(=O)NCCCN(CCCN2CCOCC2)CC2(O)CCN(c3nc(Cl)nc4sccc34)C2)cc1", "note": "(configuration not stated)", "values": [{"measurement": "Activity", "setting": "NCI-H460", "result": "inactive"}, {"measurement": "half-life", "setting": "[1]", "result": 6.06, "unit": "h"}]}
